Source: US5663197A, “2-(1-hydroxyethyl)-5-hydroxynaphtho[2,3-b]furan-4,9-dione and antitumor agents comprising this compound” (priority 1992, dated 1997)
Values after ≈ are worked out from the molar mass of the structure shown.

What was measured:
[1] = test system: Human lung small cell carcinoma SCCH-194 cells; assay: In vitro antitumor test (trypan blue exclusion viable cell count), SCCH-194; assay type: cell-based
Protocol: (§1) An appropriate amount of NFD was dissolved in DMSO to give a 1.0 mg/ml stock solution, which was diluted as necessary before use.
(§2) The following cells in the late logarithmic phase were harvested after treatment with trypsin (containing 0.25% trypsin and 0.02% EDTA; 37° C., 3 min) and used in the test: human lung adenocarcinoma cell lines A-549, VMRC-LCD and SK-LU-1, human lung squamous cell carcinoma Calu-1 cells, human colon adenocarcinoma WiDr cells, human prostate cancer LNCaP cells, human vaginal squamous cell carcinoma A-431 cells, human cervical carcinoma HeLa cells, human cholangiocarcinoma HuCC-T1 cells, mouse skin cancer melanoma B16 (M4) cells, human pancreatic carcinoma ASPC-1 cells, human neuroblastoma IMR-132 cells, human lung small cell carcinoma SCCH-194 cells, human uninary bladder carcinoma T24 cells, human renal cell carcinoma […] cells, human gastric cancer NUGC-2 cells, human thyroid carcinoma 8305C cells, human hepatoma HUH-7 cells, human ovarian carcinoma TYK-nu cells and human chorio carcinoma BeWo cells. […] These cells were plated onto a 96-well microplate at a density of 5-10×10^3 cells/cm^2 using DMEM or RPMI-1640 medium containing 10% fetal bovine serum and cultured for 24 hours in a conventional manner, after which a pre-determined amount of NFD dissolved in DMSO was added to each well. […]

[2] = test system: Mouse melanoma B16 (M4) cells; assay: In vitro antitumor test (trypan blue exclusion viable cell count), B16 (M4); assay type: cell-based
Protocol: as §1, §2

[3] = test system: Human lung squamous cell carcinoma Calu-1 cells; assay: In vitro antitumor test (trypan blue exclusion viable cell count), Calu-1; assay type: cell-based; settings: 72 h, three days exposure, read-out: LD50 (IC50), 50% growth-inhibitory dose
Protocol: as §1, §2

[4] = test system: Human neuroblastoma IMR-132 cells; assay: In vitro antitumor test (trypan blue exclusion viable cell count), IMR-132; assay type: cell-based
Protocol: as §1, §2

[5] = test system: Human prostate cancer LNCaP cells; assay: In vitro antitumor test (trypan blue exclusion viable cell count), LNCaP; assay type: cell-based
Protocol: as §1
as §2, with “cells. Suspension cultures of human breast cancer MRK-nu-1 cells, human malignant B-cell lymphoma cells and human chronic myelogenous leukemia K562 cells were used to harvest the cells to be used in the test.” for “cells.”, “well. Cultivation was continued, and the number of viable cells was counted after 24, 48 and 72 hours.” for “well.”
Growth inhibitory action and lethal activity of NFD on various types of malignant tumor cells and normal human cells listed above were evaluated by counting the number of viable cells in each well of the 96-well microplate. […]

[6] = test system: Human lung adenocarcinoma VMRC-LCD cells; assay: In vitro antitumor test (trypan blue exclusion viable cell count), VMRC-LCD; assay type: cell-based; settings: 72 h, three days exposure, read-out: LD50 (IC50), 50% growth-inhibitory dose
Protocol: as §1, §2

lung adenomas in mice = assay: Inhibition of two-step carcinogenesis in mouse lungs; assay type: in vivo, mouse (female ICR)
Protocol: Female ICR mice were used as test animals. Fifteen mice were housed in a cage and provided with the pellet diet and drinking water ad libitum. After one week of preliminary rearing, the six-week-old mice were given in the back a subcutaneous injection of 10 mg/kg body weight of 4-nitroquinoline-N-oxide (4NQO) dissolved in a mixture of olive oil and cholesterol (20:1). From five weeks after initiation, the mice were allowed to orally take 8% glycerol ad libitum as a carcinogenic promoter. The mice which received 4 NQO and 8% glycerol for 25 weeks served as a positive control. On the other hand, the mice in the test group were given ad libitum 8% glycerol containing 0.1 ng/ml of NFD for 25 weeks. Thirty weeks after the onset of the experiment, the mice were killed by cervical dislocation, and the lungs were removed after fixation with formalin under autopsy. Under a stereomicroscope, the adenomas formed in the lung were observed, and the number of adenomas was determined. The numbers were compared between the positive control and NFD-administered groups.

## CC(O)c1cc2c(o1)C(=O)c1cccc(O)c1C2=O (stereo not shown) [NFD, 2-(1-hydroxyethyl)-5-hydroxynaphtho[2,3-b]furan-4,9-dione]
[1]; 72 h, SCCH-194, three days exposure, read-out: LD50 (IC50), 50% growth-inhibitory dose
  IC50: 0.01 µg/mL (≈ 0.0387 µM)
[1]; FIG. 15, read-out: concentration inhibiting growth almost completely
  IC (almost complete): 0.03 µg/mL
[2]; 72 h, B16 (M4), three days exposure, read-out: LD50 (IC50), 50% growth-inhibitory dose
  IC50: 0.0067 µg/mL (≈ 0.0259 µM)
[2]; FIG. 10, read-out: concentration inhibiting growth almost completely
  IC (almost complete): 0.0112 µg/mL
[3]
  IC50: 0.017 µg/mL (≈ 0.0658 µM)
[4]; 72 h, IMR-132, three days exposure, read-out: LD50 (IC50), 50% growth-inhibitory dose
  IC50: 0.01 µg/mL (≈ 0.0387 µM)
[4]; FIG. 14, read-out: concentration inhibiting growth almost completely
  IC (almost complete): 0.0447 µg/mL
[5]; FIG. 6 (LNCaP; sentence prints human colon adenocarcinoma cells)
  concentration causing necrosis in almost all tumor cells: 22.4 to 55.9 ng/mL
[5]; FIG. 6 (LNCaP; sentence prints human colon adenocarcinoma cells), read-out: concentration inhibiting growth almost completely
  IC (almost complete): 0.0112 µg/mL
[5]; Homo sapiens, 72 h, LNCaP, three days exposure, read-out: LD50 (IC50), 50% growth-inhibitory dose
  IC50: 0.0017 µg/mL (≈ 0.00658 µM)
[6]
  IC50: 0.013 µg/mL (≈ 0.0503 µM)
Lung adenomas in mice; 0.1 ng/ml NFD in 8% glycerol, versus positive control
  inhibition of adenoma formation in the lung: significant inhibition
Lung adenomas in mice; 30th week after onset, versus 4NQO + 8% glycerol group
  expression percentage of lung adenomas, lower than that in the positive control group: 1/3
